Source: EP0280610B1, “Dipeptides, preparation process and use in dosing proteases” (SERBIO, priority 1987, dated 1992)

What was measured:
plasmine humaine = experiment: Hydrolysis rate of chromogenic substrates by human plasmin (pNA release, OD at 405 nm); format: biochemical; conditions: compared with reference product A3; underlying results expressed in ΔOD/minute at 405 nm, TEA buffer pH 8,4
Text: (§1) L'activité des dipeptides suivant l'invention et des tripeptides consignés dans le tableau I a été étudiée sur la thrombine humaine, la plasmine humaine, le Facteur Xa humaine et la Protéine C bovine, les tripeptides A1-A4 étant les substrats de référence du commerce. La libération du marquer HR₁ (i.e. amine H₂NRʹ₁), qui est objectivée par la variation de OD pendant l'hydrolyse enzymatique des substrats, sert d'outil de comparaison.
(§2) La lecture de OD est en général effectuée à 300-470 nm, et plus précisément à 405 nm quand R₁ est pNA, pendant environ 5 minutes.
(§3) Les essais ont été réalisés sur appareil GILFORD 203 S pour automatiser la lecture des échantillons et standardiser leur traitement.
(§4) On prépare des solutions dans du sérum physiologique renfermant chacune un enzyme : thrombine humaine 3 UNIH/ml Facteur Xa humain 3,7 nkat/ml plasmine humaine 2,3 nkat/ml protéine C bovine activée 10µg/ml
(§5) On dissout chaque peptide à tester dans le l'eau à une concentration de 10 mg/ml.
(§6) 400 µl d'enzyme dilué au 1/2 dans du tampon TEA (pH 8,4) sont ajoutés à 200 µl de chacun des différents peptides à tester. On détermine les vitesses d'hydrolyse desdits substrats en suivant l'évolution de la libération de pNA. Cette évolution peut être suivie par la lecture de la varition de OD par unité de temps (ΔOD/minute) à 405 nm.

Protéine C bovine = experiment: Hydrolysis rate of chromogenic substrates by activated bovine protein C (pNA release, OD at 405 nm); format: biochemical; conditions: compared with reference product A4; underlying results expressed in ΔOD/minute at 405 nm, TEA buffer pH 8,4
Text: as §1, §2, §3, §4, §5, §6

Question: With MM-L-4Hyp-L-Arg-pNA, H-TFA [EX 10] as the substance, how does the “sensibilité à la plasmine” value (plasmine humaine) read?
Answer: plus sensible à la plasmine que le produit de référence A3

Question: And the “sensibilité à la protéine C” value (Protéine C bovine)?
Answer: plus sensibles à la protéine C que le produit de référence A4
